Results published in publication PMC10504544, “1-deoxy-D-xylulose-5-phosphate synthase from Pseudomonas aeruginosa and Klebsiella pneumoniae reveals conformational changes upon cofactor binding” (The Journal of Biological Chemistry, 2023).

How the values were obtained:
Format in all cases: biochemical
[1] = biological target: T1, 1-deoxy-D-xylulose-5-phosphate synthase (kpDXPS) (Klebsiella pneumoniae, UniProt A6T5F3, DEL197-240/INS196GGGGGG); assay: IspC-coupled spectrophotometric assay
T1 construct: gene dxs; truncated kpDXPS; residues 197 to 240 replaced with a six glycine unit
T1 sequence (A6T5F3 whole entry, stated change not applied, the tested form may be a part): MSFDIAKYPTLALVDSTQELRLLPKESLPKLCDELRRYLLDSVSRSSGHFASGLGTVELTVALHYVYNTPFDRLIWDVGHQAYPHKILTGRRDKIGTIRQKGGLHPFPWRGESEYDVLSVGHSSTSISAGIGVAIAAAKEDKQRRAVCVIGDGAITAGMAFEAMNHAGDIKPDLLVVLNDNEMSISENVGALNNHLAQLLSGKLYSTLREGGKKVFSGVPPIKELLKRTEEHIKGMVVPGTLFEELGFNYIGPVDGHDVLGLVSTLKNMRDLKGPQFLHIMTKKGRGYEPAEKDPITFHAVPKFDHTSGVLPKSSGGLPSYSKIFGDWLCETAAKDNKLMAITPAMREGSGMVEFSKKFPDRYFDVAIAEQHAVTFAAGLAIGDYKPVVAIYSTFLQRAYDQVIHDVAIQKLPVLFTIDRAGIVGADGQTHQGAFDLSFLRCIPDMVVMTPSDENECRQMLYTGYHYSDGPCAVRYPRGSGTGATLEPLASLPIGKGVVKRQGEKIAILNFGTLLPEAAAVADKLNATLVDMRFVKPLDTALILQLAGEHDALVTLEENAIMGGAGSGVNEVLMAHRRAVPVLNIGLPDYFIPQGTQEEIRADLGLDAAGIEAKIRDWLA

[2] = biological target: T2, 1-deoxy-D-xylulose-5-phosphate synthase (paDXPS) (Pseudomonas aeruginosa, UniProt B7V7R4, DEL206-245/INS205GGGGGG); assay: co-crystal structure ([…] Å); coupled spectrophotometric inhibition assay
T2 construct: gene dxs; truncated paDXPS; residues 206 to 245 replaced with a six glycine unit

[3] = biological target: T3, 1-deoxy-D-xylulose-5-phosphate synthase (paDXPS) (Pseudomonas aeruginosa, UniProt B7V7R4, DEL206-245/INS205GGGGGG); assay: IspC-coupled spectrophotometric assay; mode-of-inhibition study
T3 construct: gene dxs
T3 sequence (B7V7R4 1-627 INS205GGGGGG/DEL206-245): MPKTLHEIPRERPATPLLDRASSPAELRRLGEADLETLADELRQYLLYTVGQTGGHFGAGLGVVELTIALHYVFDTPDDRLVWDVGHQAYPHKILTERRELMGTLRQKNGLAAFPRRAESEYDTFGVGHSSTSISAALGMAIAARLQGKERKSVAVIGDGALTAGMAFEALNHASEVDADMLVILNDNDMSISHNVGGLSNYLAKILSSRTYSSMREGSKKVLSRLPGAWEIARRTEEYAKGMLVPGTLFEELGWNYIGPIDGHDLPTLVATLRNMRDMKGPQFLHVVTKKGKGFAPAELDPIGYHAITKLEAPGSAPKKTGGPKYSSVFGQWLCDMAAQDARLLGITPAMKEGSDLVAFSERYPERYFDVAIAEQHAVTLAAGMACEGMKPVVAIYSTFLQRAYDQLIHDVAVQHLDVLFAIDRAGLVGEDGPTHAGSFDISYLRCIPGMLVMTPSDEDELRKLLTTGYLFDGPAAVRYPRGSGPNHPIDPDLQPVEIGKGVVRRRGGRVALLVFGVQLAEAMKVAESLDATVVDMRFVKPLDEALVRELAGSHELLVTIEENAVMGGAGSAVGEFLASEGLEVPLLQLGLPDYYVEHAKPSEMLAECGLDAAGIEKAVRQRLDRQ

For `Cc1ncc(Cc2cccc(CCO)c2)c(N)n1` [2-{3-[(4-Amino-2-Methylpyrimidin-5-Yl)methyl]phenyl}ethanol], the IC50 [1] was 94 µM and the IC50 [2] was 197 µM.

For `O=C(O)C(=O)CF` [fluoropyruvate], the IC50 [3] was roughly 27 µM.
